Reference: US7511065B2, “Mixed lineage kinase modulators” (Eli Lilly and Company, priority 2002, dated 2009)

Target: T1, MLK-7 (Homo sapiens, UniProt Q9NYL2)
T1 construct: GST; His tag; made in house; host or cells: Sf9 insect cells (baculovirus, pVL1392)
Assay: In vitro assay of purified MLK-7 kinase activity (33P transfer from ATP to myelin basic protein)
Assay type: biochemical
Conditions: recombinant GST-tagged MLK-7 at 1 nm, 30 uM ATP, 5 uM MBP substrate, 2 hours room temperature; read-out: MLK7 IC50
Text: In Vitro Assay of Purified Mixed Lineage Kinase 7 (MLK-7) Activity:
Briefly, recombinant glutathione-s-transferase (GST) tagged MLK-7 is expressed in Sf9 cells using a recombinant baculovirus created using baculovirus transfer vector pVL1392 modified to contain a GST and histidine tag. The recombinant protein is purified over a glutathione column and subsequently used for in vitro kinase assays with myelin basic protein (MBP) as the substrate for phosphorylation. The in vitro kinase reaction is run with recombinant MLK-7 at 1 nm and various concentrations of test compound in a reaction mixture containing 2 mM DTT, 30 uM ATP, 5 mM MgCl2, 5 uM MBP, 4% DMSO, 5 uCi 33P in 44 mM HEPES, (pH 7.4). The reaction is carried out for 2 hours at room temperature and then stopped by the addition of phosphoric acid to 5.5%. The phosphorylated MBP is collected on a filter and radioactivity associated with the membrane measured using a scintillation counter. Inhibitors are identified by the ability to reduce the transfer of radioactive phosphate from ATP to MBP compared to controls run without test compound.
IC50 values, defined as the concentration of test compound required to decrease the transfer of radioactive phosphate from ATP to MBP by 50%, are then determined. Ki values (which refers to the dissociation constant of an enzyme-antagonist complex and serves as an index of ligand binding) for each respective test compound can also be calculated by application of the Cheng-Prusoff equation as described in Cheng et al., Relationship Between The Inhibition Constant (Ki) and The Concentration of Inhibitor Which Causes 50% Inhibition (IC50) of an Enzymatic Reaction, Biochem. Pharmacol., 22: […]; (1973).
Representative compounds of the present invention have an IC50 in the MLK-7 kinase assay of ≦10,000 nM Table I (see infra.) provides IC50 data from the afore mentioned MLK-7 kinase assay for a representative sample of the exemplified compounds of the present invention.

T1 sequence (Q9NYL2 1-455 isoform Q9NYL2-2): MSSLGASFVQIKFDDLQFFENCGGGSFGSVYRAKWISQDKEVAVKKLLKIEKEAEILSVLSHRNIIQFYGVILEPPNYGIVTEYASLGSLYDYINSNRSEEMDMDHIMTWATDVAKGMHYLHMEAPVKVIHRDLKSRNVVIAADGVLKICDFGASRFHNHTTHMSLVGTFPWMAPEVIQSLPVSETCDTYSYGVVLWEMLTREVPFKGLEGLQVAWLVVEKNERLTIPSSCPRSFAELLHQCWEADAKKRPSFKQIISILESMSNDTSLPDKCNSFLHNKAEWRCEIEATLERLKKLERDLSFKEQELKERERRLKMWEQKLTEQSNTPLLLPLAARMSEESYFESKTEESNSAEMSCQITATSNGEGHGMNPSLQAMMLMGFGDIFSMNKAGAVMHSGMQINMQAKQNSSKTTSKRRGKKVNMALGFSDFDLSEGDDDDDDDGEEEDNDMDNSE

SMILES	IC50 [nM]
Cc1cccc(-c2nn3c(c2-c2ccnc4cc(-c5ccc(CCC(=O)O)cc5)ccc24)CCC3)n1 [Example 58, 3-(4-{4-[2-(6-Methyl-pyridin-2-yl)-5,6-dihydro-4H-pyrrolo[1,2-b]pyrazol-3-yl]-quinolin-7-yl}-phenyl)-propionic acid]	≤ 100
Cc1cccc(-c2nn3c(c2-c2ccnc4cc(-c5ccc(F)cc5)ccc24)CCC3)n1 [Example 59, 7-(4-Fluoro-phenyl)-4-[2-(6-methyl-pyridin-2-yl)-5,6-dihydro-4H-pyrrolo[1,2-b]pyrazol-3-yl]-quinoline]	≤ 100
COc1ccc(-c2ccc3c(-c4c(-c5cccc(C)n5)nn5c4CCC5)ccnc3c2)cc1 [Example 60, 7-(4-Methoxy-phenyl)-4-[2-(6-methyl-pyridin-2-yl)-5,6-dihydro-4H-pyrrolo[1,2-b]pyrazol-3-yl]-quinoline]	≤ 100
Cc1cccc(-c2nn3c(c2-c2ccnc4cc(-c5ccccc5)ccc24)CCC3)n1 [Example 61, 7-Phenyl-4-[2-(6-methyl-pyridin-2-yl)-5,6-dihydro-4H-pyrrolo[1,2-b]pyrazol-3-yl]-quinoline Trifluoroacetic Acid]	≤ 100
Cc1cccc(-c2nn3c(c2-c2ccnc4cc(-c5cccs5)ccc24)CCC3)n1 [Example 62, 4-[2-(6-Methyl-pyridin-2-yl)-5,6-dihydro-4H-pyrrolo[1,2-b]pyrazol-3-yl]-7-thiophen-2-yl-quinoline Trifluoroacetic Acid]	≤ 100
Cc1cccc(-c2nn3c(c2-c2ccnc4cc(-c5cccc([N+](=O)[O-])c5)ccc24)CCC3)n1 [Example 63, 4-[2-(6-Methyl-pyridin-2-yl)-5,6-dihydro-4H-pyrrolo[1,2-b]pyrazol-3-yl]-7-(3-nitro-phenyl)quinoline]	≤ 100
Cc1cccc(-c2nn3c(c2-c2ccnc4cc(-c5ccc(Cl)cc5)ccc24)CCC3)n1 [Example 64, 7-(4-Chloro-phenyl)-4-[2-(6-methyl-pyridin-2-yl)-5,6-dihydro-4H-pyrrolo[1,2-b]pyrazol-3-yl]-quinoline]	≤ 1000
c1ccc(-c2nn3c(c2-c2ccnc4cc(C5CCCCC5)ccc24)CCC3)nc1 [Example 72, 7-Cyclohexyl-4-(2-pyridin-2-yl-5,6-dihydro-4H-pyrrolo[1,2-b]pyrazol-3-yl)quinoline Trifluoroacetic Acid]	≤ 10000
OCCOc1ccc(-c2ccc3c(-c4c(-c5ccccn5)nn5c4CCC5)ccnc3c2)cc1 [Example 73, 2-{4-[4-(2-Pyridin-2-yl-5,6-dihydro-4H-pyrrolo[1,2-b]pyrazol-3-yl)quinolin-yl]phenoxy}ethanol Trifluoroacetic Acid]	≤ 100
NCCc1ccc(-c2ccc3c(-c4c(-c5ccccn5)nn5c4CCC5)ccnc3c2)cc1 [Example 76, 2-{4-[4-(2-pyridin-2-yl-5,6-dihydro-4H-pyrrolo[1,2-b]pyrazol-3-yl)quinolin-7-yl]phenyl}ethylamine Ditrifluoroacetic Acid]	≤ 100
COC(=O)c1cc(C(=O)OC)cc(-c2ccc3c(-c4c(-c5ccccn5)nn5c4CCC5)ccnc3c2)c1 [Example 80, 5-[4-(2-Pyridin-2-yl-5,6-dihydro-4H-pyrrolo[1,2-b]pyrazol-3-yl)quinolin-7-yl]isophthalic Acid Dimethyl Ester Trifluoroacetic Acid]	≤ 10000
O=S1(=O)Cc2ccc(-c3ccc4c(-c5c(-c6ccccn6)nn6c5CCC6)ccnc4c3)cc2C1 [Example 81]	≤ 100

Other lines, results leading:

IC50 [nM]	SMILES
≤ 100	c1ccc(-c2nn3c(c2-c2ccnc4cc(-c5ccco5)ccc24)CCC3)nc1 [Example 65, 7-Furan-2-yl-4-(2-Pyridin-2-yl-5,6-dihydro-4H-pyrrolo[1,2-b]pyrazol-3-yl)quinoline Trifluoroacetic Acid]
≤ 100	c1ccc(-c2nn3c(c2-c2ccnc4cc(-c5nccs5)ccc24)CCC3)nc1 [Example 66, 4-(2-Pyridin-2-yl-5,6-dihydro-4H-pyrrolo[1,2-b]pyrazol-3-yl)-7-thiazol-2-yl-quinoline Trifluoroacetic Acid]
≤ 1000	c1ccc(-c2nn3c(c2-c2ccnc4cc(-c5cnccn5)ccc24)CCC3)nc1 [Example 67, 7-Pyrazin-2-yl-4-(2-Pyridin-2-yl-5,6-dihydro-4H-pyrrolo[1,2-b]pyrazol-3-yl)quinoline Ditrifluoroacetic Acid]
≤ 100	c1ccc(-c2ccc3c(-c4c(-c5ccccn5)nn5c4CCC5)ccnc3c2)nc1 [Example 68, 7-Pyridin-2-yl-4-(2-Pyridin-2-yl-5,6-dihydro-4H-pyrrolo[1,2-b]pyrazol-3-yl)quinoline Ditrifluoroacetic Acid]
≤ 100	c1ccc(-c2nn3c(c2-c2ccnc4cc(-c5ccc[nH]5)ccc24)CCC3)nc1 [Example 69, 4-(2-pyridin-2-yl-5,6-dihydro-4H-pyrrolo[1,2-b]pyrazol-3-yl)-7-(1H-pyrrol-2-yl)quinoline Ditrifluoroacetic Acid]
≤ 100	c1ccc(-c2nn3c(c2-c2ccnc4cc(-c5cc6ccccc6[nH]5)ccc24)CCC3)nc1 [Example 70, 7-(1H-Indol-2-yl)-4-(2-pyridin-2-yl-5,6-dihydro-4H-pyrrolo[1,2-b]pyrazol-3-yl)quinoline Ditrifluoroacetic Acid]
≤ 100	c1ccc(-c2nn3c(c2-c2ccnc4cc(-c5cc[nH]c5)ccc24)CCC3)nc1 [Example 71, 4-(2-pyridin-2-yl-5,6-dihydro-4H-pyrrolo[1,2-b]pyrazol-3-yl)-7-(1H-pyrrol-3-yl)quinoline Ditrifluoroacetic Acid]
≤ 100	O=C(O)Cc1ccc(-c2ccc3c(-c4c(-c5ccccn5)nn5c4CCC5)ccnc3c2)cc1 [Example 74, {4-[4-(2-pyridin-2-yl-5,6-dihydro-4H-pyrrolo[1,2-b]pyrazol-3-yl)quinolin-7-yl]phenyl}acetic Acid Trifluoroacetic Acid]
≤ 100	CS(=O)(=O)c1ccc(-c2ccc3c(-c4c(-c5ccccn5)nn5c4CCC5)ccnc3c2)cc1 [Example 75, 7-(4-Methanesulfonylphenyl)-4-(2-pyridin-2-yl-5,6-dihydro-4H-pyrrolo[1,2-b]pyrazol-3-yl)quinoline Trifluoroacetic Acid]
≤ 100	Cc1ccc(-c2ccc3c(-c4c(-c5ccccn5)nn5c4CCC5)ccnc3c2)cc1 [Example 77, 4-(2-pyridin-2-yl-5,6-dihydro-4H-pyrrolo[1,2-b]pyrazol-3-yl)-7-p-tolylquinoline Trifluoroacetic Acid]
≤ 100	Nc1ccc(-c2ccc3c(-c4c(-c5ccccn5)nn5c4CCC5)ccnc3c2)cc1F [Example 78, 2-Fluoro-4-[4-(2-pyridin-2-yl-5,6-dihydro-4H-pyrrolo[1,2-b]pyrazol-3-yl)quinolin-7-yl]phenylamine Ditrifluoroacetic Acid]
≤ 10000	O=C(O)c1cc(C(=O)O)cc(-c2ccc3c(-c4c(-c5ccccn5)nn5c4CCC5)ccnc3c2)c1 [Example 79, 5-[4-(2-Pyridin-2-yl-5,6-dihydro-4H-pyrrolo[1,2-b]pyrazol-3-yl)quinolin-7-yl]isophthalic Acid Trifluoroacetic Acid]
≤ 100	O=C(O)c1cccc(-c2ccc3c(-c4c(-c5ccccn5)nn5c4CCC5)ccnc3c2)n1 [Example 82, 6-[4-(2-Pyridin-2-yl-5,6-dihydro-4H-pyrrolo[1,2-b]pyrazol-3-yl)quinolin-7-yl]pyridine-2-carboxylic Acid Tris-trifluoroacetic Acid]
